Reference: USRE37781E1, “Substituted cyclic carbonyls and derivatives thereof useful as retroviral protease inhibitors” (DuPont Pharmaceuticals Company, priority 1991, dated 2002)
Values after ≈ are worked out from the molar mass of the structure shown. Like-named read-outs stand apart in the source and are kept apart here.

What was measured:
[1] = molecular target: single-chain tethered dimer of HIV protease (Human immunodeficiency virus 1, UniProt P04585); experiment: biochemical; assay type: biochemical; set-up: fused on or other part: A second copy of the same protease unit is joined to the first by a short peptide tether, giving one polypeptide
HIV-1 (RF) in MT-2 cells = experiment: microbe, parasite or virus in culture; assay type: cell-based; settings: read-out: IC90
Procedure, shortened: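 HIV-1 laboratory strains (RF, MN, IIIB) grown in H9 cells in RPMI 1640 with 5% FCS; infections in MT-2 cells. Viral RNA quantified by hybridization with biotinylated gag/pol capture probes on streptavidin plates and alkaline phosphatase-conjugated reporter probes; BH10 gag-pol in vitro transcripts serve as RNA standards.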

[2] = read-out: HPLC K1, Table 2d, class symbols
[3] = Human immunodeficiency virus 1, MT2, 48 h, Table 2d, class symbols
[4] = read-out: HPLC K1, Table 2d, HIV protease inhibition, HPLC method
[5] = Human immunodeficiency virus 1, MT2, 48 h, Table 2d, HIV RNA assay
[6] = Human immunodeficiency virus 1, MT2, Table 2m

Row | SMILES | melting point | Ki [1, 2] [nM] | IC90 (HIV-1 (RF) in MT-2 cells; [3]) [µg/mL] | Ki [1, 4] [nM] | IC90 (HIV-1 (RF) in MT-2 cells; [5]) [µg/mL] | Ki ([1]; read-out: HPLC Ki, Table 2m) [nM] | IC90 (HIV-1 (RF) in MT-2 cells; [6]) [µg/mL]
1 | CCNC(=O)c1cccc(CN2C(=O)N(Cc3cccc(C(=O)NCC)c3)C(Cc3ccccc3)C(O)C(O)C2Cc2ccccc2)c1 (stereo not drawn) [11R] | 135 to 138 °C | < 10 | < 10 |  |  |  | 
2 | NC(=NO)c1cccc(CN2C(=O)N(CC3CC3)C(Cc3ccccc3)C(O)C(O)C2Cc2ccccc2)c1 (stereo not drawn) [15AF] | 183 to 186 °C |  |  | < 10 | < 10 |  | 
3 | O=C1N(Cc2ccc(O)c(O)c2)C(Cc2ccccc2)C(O)C(O)C(Cc2ccccc2)N1CC1CC1 (stereo not drawn) [15AG] | 141 °C |  |  | < 10 | < 10 |  | 
4 | NC(=NO)c1cccc(CN2C(=O)N(Cc3ccc(CO)cc3)C(Cc3ccccc3)C(O)C(O)C2Cc2ccccc2)c1 (stereo not drawn) [15AH] | 198 to 199 °C |  |  | < 10 | < 10 |  | 
5 | NC(=NO)c1ccc(CN2C(=O)N(Cc3ccc(CO)cc3)C(Cc3ccccc3)C(O)C(O)C2Cc2ccccc2)cc1 (stereo not drawn) [15AI] | 215 °C |  |  | 10 to 1000 | < 10 |  | 
6 | NC(=NO)c1cccc(CN2C(=O)N(Cc3ccc4ccccc4c3)C(Cc3ccccc3)C(O)C(O)C2Cc2ccccc2)c1 (stereo not drawn) [15AN] | 192 to 193 °C |  |  | < 10 | < 10 |  | 
7 | NC(=NO)c1cccc(CN2C(=O)NC(Cc3ccccc3)C(O)C(O)C2Cc2ccccc2)c1 (stereo not drawn) [15AT] | 172 to 179 °C |  |  | < 10 | < 10 |  | 
8 | NC(=NO)c1cccc(CN2C(=O)N(Cc3ccc(O)cc3)C(Cc3ccccc3)C(O)C(O)C2Cc2ccccc2)c1 (stereo not drawn) [15AU] | 195 to 197 °C |  |  | < 10 | < 10 |  | 
9 | O=C1N(Cc2cccc(NS(=O)(=O)C(F)(F)F)c2)C(Cc2ccccc2)C(O)C(O)C(Cc2ccccc2)N1Cc1cccc(NS(=O)(=O)C(F)(F)F)c1 (stereo not drawn) [15B] | 141.8 °C | < 10 | 10 to 100 (≈ 12.5 to 125 µM) |  |  |  | 
10 | Nc1ccc(CN2C(=O)N(Cc3ccc(N)cc3)C(Cc3ccccc3)C(O)C(O)C2Cc2ccccc2)cc1 (stereo not drawn) [15CQ] | 114 to 116 °C |  |  | < 10 | < 10 |  | 
11 | O=C1N(Cc2ccc3[nH]ncc3c2)C(Cc2ccccc2)C(O)C(O)C(Cc2ccccc2)N1Cc1ccc2[nH]ncc2c1 (stereo not drawn) [15CX] | 165 to 170 °C |  |  | < 10 | < 10 |  | 
12 | O=C1N(Cc2ccc3cn[nH]c3c2)C(Cc2ccccc2)C(O)C(O)C(Cc2ccccc2)N1Cc1ccc2cn[nH]c2c1 (stereo not drawn) [15CY] | 170 to 175 °C |  |  | < 10 | < 10 |  | 
13 | O=C1Nc2ccc(CN3C(=O)N(Cc4ccc5c(c4)C(=O)C(=O)N5)C(Cc4ccccc4)C(O)C(O)C3Cc3ccccc3)cc2C1=O (stereo not drawn) [15DA] | 196 to 200 °C |  |  | < 10 | < 10 |  | 
14 | O=C1N(Cc2ccc3[nH]ccc3c2)C(Cc2ccccc2)C(O)C(O)C(Cc2ccccc2)N1Cc1ccc2[nH]ccc2c1 (stereo not drawn) [15DE] | 170 °C (dec.) |  |  | < 10 | < 10 |  | 
15 | CNc1cccc(CN2C(=O)N(Cc3cccc(NC)c3)C(Cc3ccccc3)C(O)C(O)C2Cc2ccccc2)c1 (stereo not drawn) [15D] | 180.3 °C | < 10 | < 10 |  |  |  | 
16 | O=C(Nc1cccc(CN2C(=O)N(Cc3cccc(NC(=O)OCc4ccccc4)c3)C(Cc3ccccc3)C(O)C(O)C2Cc2ccccc2)c1)OCc1ccccc1 (stereo not drawn) [15E] | 190.7 °C | 10 to 1000 | > 100 |  |  |  | 
17 | CN(C=O)c1cccc(CN2C(=O)N(Cc3cccc(N(C)C=O)c3)C(Cc3ccccc3)C(O)C(O)C2Cc2ccccc2)c1 (stereo not drawn) [15F] | 82 °C | 10 to 1000 | < 10 |  |  |  | 
18 | CN(C)c1cccc(CN2C(=O)N(Cc3cccc(N(C)C)c3)C(Cc3ccccc3)C(O)C(O)C2Cc2ccccc2)c1 (stereo not drawn) [15I] | 199.9 °C | < 10 | < 10 |  |  |  | 

Row | SMILES | melting point | Ki [1, 2] [nM] | IC90 (HIV-1 (RF) in MT-2 cells; [3]) [µg/mL] | Ki [1, 4] [nM] | IC90 (HIV-1 (RF) in MT-2 cells; [5]) [µg/mL] | Ki ([1]; read-out: HPLC Ki, Table 2m) [nM] | IC90 (HIV-1 (RF) in MT-2 cells; [6]) [µg/mL]
19 | O=C1N(Cc2ccc(CO)cc2)C(Cc2ccccc2)C(O)C(O)C(Cc2ccccc2)N1Cc1cccc([N+](=O)[O-])c1 (stereo not drawn) [15J] | 92 °C | < 10 | < 10 |  |  |  | 
20 | CCC(O)CN1C(=O)N(CC(O)CC)C(Cc2ccccc2)C(O)C(O)C1Cc1ccccc1 (stereo not drawn) [15VN] | 99.2 °C | > 1000 | > 50 |  |  |  | 
21 | CCN(CC)C(=O)c1cccc(CN2C(=O)N(Cc3cccc(C(=O)N(CC)CC)c3)C(Cc3ccccc3)C(O)C(O)C2Cc2ccccc2)c1 (stereo not drawn) [15WF] | 89 to 91 °C | < 10 | < 10 |  |  |  | 
22 | O=C1NC(Cc2ccccc2)C(O)C(O)C(Cc2ccccc2)N1Cc1cccc(CO)c1 (stereo not drawn) [15WI] | 176 to 177 °C | < 10 | < 10 |  |  |  | 
23 | CCN(CC)C(=O)c1cccc(CN2C(=O)N(Cc3cccc(CO)c3)C(Cc3ccccc3)C(O)C(O)C2Cc2ccccc2)c1 (stereo not drawn) [15WJ] | 88.9 to 90 °C | < 10 | < 10 |  |  |  | 
24 | CC(C)NC(=O)c1cccc(CN2C(=O)N(Cc3cccc(C(=O)O)c3)C(Cc3ccccc3)C(O)C(O)C2Cc2ccccc2)c1 (stereo not drawn) [15WN] | 164 to 167 °C | < 10 | < 10 |  |  |  | 
25 | CCCNC(=O)c1cccc(CN2C(=O)N(Cc3cccc(C(=O)O)c3)C(Cc3ccccc3)C(O)C(O)C2Cc2ccccc2)c1 (stereo not drawn) [15WO] | 151 to 153 °C | < 10 | < 10 |  |  |  | 
26 | O=C(O)c1cccc(CN2C(=O)N(Cc3ccccc3)C(Cc3ccccc3)C(O)C(O)C2Cc2ccccc2)c1 (stereo not drawn) [15WP] | 122 to 124 °C | < 10 | < 10 |  |  |  | 
27 | O=C(O)c1cccc(CN2C(=O)N(CC3CC3)C(Cc3ccccc3)C(O)C(O)C2Cc2ccccc2)c1 (stereo not drawn) [15WQ] | 135 to 137 °C | < 10 | < 10 |  |  |  | 
28 | O=C(O)c1cccc(CN2C(=O)N(Cc3ccc(CO)cc3)C(Cc3ccccc3)C(O)C(O)C2Cc2ccccc2)c1 (stereo not drawn) [15WR] | 130 to 132 °C | < 10 | < 10 |  |  |  | 
29 | NC(=O)c1cccc(CN2C(=O)N(Cc3ccc(CO)cc3)C(Cc3ccccc3)C(O)C(O)C2Cc2ccccc2)c1 (stereo not drawn) [15WT] | 123 to 124 °C | < 10 | < 10 |  |  |  | 
30 | NC(=O)c1cccc(CN2C(=O)N(CC3CC3)C(Cc3ccccc3)C(O)C(O)C2Cc2ccccc2)c1 (stereo not drawn) [15WV] | 128 to 130 °C | < 10 | < 10 |  |  |  | 
31 | NC(=O)c1cccc(CN2C(=O)NC(Cc3ccccc3)C(O)C(O)C2Cc2ccccc2)c1 (stereo not drawn) [15WW] | 114 to 116 °C | < 10 | < 10 |  |  |  | 
32 | CNc1cccc(CN2C(=O)N(Cc3ccc4ccccc4c3)C(Cc3ccccc3)C(O)C(O)C2Cc2ccccc2)c1 (stereo not drawn) [15WZ] | 98 to 100 °C | < 10 | < 10 |  |  |  | 
33 | O=S1(=O)N(Cc2ccc(CO)cc2)C(Cc2ccccc2)C(O)C(O)C(Cc2ccccc2)N1Cc1ccc(CO)cc1 (stereo not drawn) [23B] | 189 to 190 °C |  |  |  |  | < 10 | < 10
34 | O=[N+]([O-])c1cccc(CN2C(Cc3ccccc3)C(O)C(O)C(Cc3ccccc3)N(Cc3cccc([N+](=O)[O-])c3)S2(=O)=O)c1 (stereo not drawn) [23L] | 196 to 198 °C |  |  |  |  | 10 to 1000 | < 10
35 | O=C1N(Cc2cccc(C=NO)c2)C(Cc2ccccc2)C(O)C(O)C(Cc2ccccc2)N1Cc1cccc(CNO)c1 (stereo not drawn) [Example 9A] | 214 to 216 °C | 10 to 1000 | < 10 |  |  |  | 
